Data reported in ChEMBL document CHEMBL1201862, “PubChem BioAssay data set” (2004).
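Tested at 5 concentrations; 48 h exposure; 96-well plates; endpoints linearly interpolated, else capped at highest concentration. Here, GI50 denotes the concentration required for 50% inhibition of growth.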 Active and inactive are the calls of the source. No stated cut-off is given here; in the data, active = GI50 up to about 1.1 µM and inactive = higher.

Experiments:
Test in all cases: NCI anticancer screen, dose series, 48 h
[1] = tested on: 786-0
[2] = tested on: A498
[3] = tested on: A549
[4] = tested on: ACHN
[5] = tested on: BT-549
[6] = tested on: CAKI-1
[7] = tested on: CCRF-CEM
[8] = tested on: COLO 205
[9] = tested on: DU-145
[10] = tested on: EKVX
[11] = tested on: HCC 2998
[12] = tested on: HCT-116
[13] = tested on: HCT-15
[14] = tested on: HL-60
[15] = tested on: HOP-62
[16] = tested on: HOP-92
[17] = tested on: HT-29
[18] = tested on: Hs-578T
[19] = tested on: IGROV-1
[20] = tested on: K562
[21] = tested on: KM12
[22] = tested on: LOX IMVI
[23] = tested on: M14
[24] = tested on: MCF7
[25] = tested on: MDA-MB-231
[26] = tested on: MDA-MB-435
[27] = tested on: MDA-N
[28] = tested on: MOLT-4
[29] = tested on: Malme-3M
[30] = tested on: NCI-H226
[31] = tested on: NCI-H23
[32] = tested on: NCI-H460
[33] = tested on: NCI-H522
[34] = tested on: NCI/ADR-RES
[35] = tested on: OVCAR-3
[36] = tested on: OVCAR-4
[37] = tested on: OVCAR-5
[38] = tested on: OVCAR-8
[39] = tested on: PC-3
[40] = tested on: RPMI-8226
[41] = tested on: SF-268
[42] = tested on: SF-295
[43] = tested on: SF-539
[44] = tested on: SK-MEL-28
[45] = tested on: SK-MEL-2
[46] = tested on: SK-MEL-5
[47] = tested on: SK-OV-3
[48] = tested on: SN12C
[49] = tested on: SNB-19
[50] = tested on: SNB-75
[51] = tested on: SR
[52] = tested on: SW-620
[53] = tested on: T47D
[54] = tested on: TK-10
[55] = tested on: U-251
[56] = tested on: UACC-257
[57] = tested on: UACC-62
[58] = tested on: UO-31
[59] = tested on: RXF 393

COc1cc2c(c(O)c1OC)C(=O)[C@@H]1CCC(=O)N1C2
GI50 [1]: > 100 µM (inactive)
GI50 [2]: > 100 µM (inactive)
GI50 [3]: > 100 µM (inactive)
GI50 [4]: > 100 µM (inactive)
GI50 [5]: > 100 µM (inactive)
GI50 [6]: > 100 µM (inactive)
GI50 [7]: > 100 µM (inactive)
GI50 [8]: > 100 µM (inactive)
GI50 [9]: > 100 µM (inactive)
GI50 [10]: > 100 µM (inactive)
GI50 [11]: > 100 µM (inactive)
GI50 [12]: > 100 µM (inactive)
GI50 [13]: > 100 µM
GI50 [14]: > 100 µM (inactive)
GI50 [15]: > 100 µM (inactive)
GI50 [16]: 71 µM (inactive)
GI50 [17]: > 100 µM (inactive)
GI50 [18]: > 100 µM (inactive)
GI50 [19]: > 100 µM (inactive)
GI50 [20]: > 100 µM (inactive)
GI50 [21]: > 100 µM (inactive)
GI50 [22]: > 100 µM (inactive)
GI50 [23]: > 100 µM (inactive)
GI50 [24]: > 100 µM (inactive)
GI50 [25]: > 100 µM (inactive)
GI50 [26]: > 100 µM (inactive)
GI50 [27]: > 100 µM (inactive)
GI50 [28]: > 100 µM (inactive)
GI50 [29]: > 100 µM (inactive)
GI50 [30]: > 100 µM (inactive)
GI50 [31]: > 100 µM (inactive)
GI50 [32]: > 100 µM (inactive)
GI50 [33]: > 100 µM (inactive)
GI50 [34]: > 100 µM (inactive)
GI50 [35]: > 100 µM (inactive)
GI50 [36]: > 100 µM (inactive)
GI50 [37]: > 100 µM (inactive)
GI50 [38]: > 100 µM (inactive)
GI50 [39]: > 100 µM (inactive)
GI50 [40]: > 100 µM (inactive)
GI50 [41]: > 100 µM (inactive)
GI50 [42]: > 100 µM (inactive)
GI50 [43]: > 100 µM (inactive)
GI50 [44]: > 100 µM (inactive)
GI50 [45]: > 100 µM (inactive)
GI50 [46]: > 100 µM (inactive)
GI50 [47]: > 100 µM (inactive)
GI50 [48]: > 100 µM (inactive)
GI50 [49]: > 100 µM (inactive)
GI50 [50]: > 100 µM (inactive)
GI50 [51]: > 100 µM (inactive)
GI50 [52]: > 100 µM (inactive)
GI50 [53]: > 100 µM (inactive)
GI50 [54]: > 100 µM (inactive)
GI50 [55]: > 100 µM (inactive)
GI50 [56]: > 100 µM (inactive)
GI50 [57]: > 100 µM (inactive)
GI50 [58]: > 100 µM (inactive)

Cc1ccc(S(=O)(=O)/N=C2/N(C)CCCS2(=O)=O)cc1
GI50 [1]: > 100 µM (inactive)
GI50 [2]: > 100 µM (inactive)
GI50 [3]: > 100 µM (inactive)
GI50 [4]: > 100 µM (inactive)
GI50 [5]: > 100 µM (inactive)
GI50 [6]: > 100 µM (inactive)
GI50 [7]: > 100 µM (inactive)
GI50 [8]: > 100 µM (inactive)
GI50 [9]: > 100 µM (inactive)
GI50 [10]: > 100 µM (inactive)
GI50 [11]: > 100 µM (inactive)
GI50 [12]: > 100 µM (inactive)
GI50 [13]: > 100 µM
GI50 [14]: > 100 µM (inactive)
GI50 [15]: > 100 µM (inactive)
GI50 [16]: > 100 µM (inactive)
GI50 [17]: > 100 µM (inactive)
GI50 [18]: > 100 µM (inactive)
GI50 [19]: > 100 µM (inactive)
GI50 [20]: > 100 µM (inactive)
GI50 [21]: > 100 µM (inactive)
GI50 [22]: > 100 µM (inactive)
GI50 [23]: > 100 µM (inactive)
GI50 [24]: > 100 µM (inactive)
GI50 [25]: 18 µM (inactive)
GI50 [26]: > 100 µM (inactive)
GI50 [27]: > 100 µM (inactive)
GI50 [28]: > 100 µM (inactive)
GI50 [30]: > 100 µM (inactive)
GI50 [31]: > 100 µM (inactive)
GI50 [32]: > 100 µM (inactive)
GI50 [33]: > 100 µM (inactive)
GI50 [34]: > 100 µM (inactive)
GI50 [35]: > 100 µM (inactive)
GI50 [36]: > 100 µM (inactive)
GI50 [37]: > 100 µM (inactive)
GI50 [38]: > 100 µM (inactive)
GI50 [39]: > 100 µM (inactive)
GI50 [40]: > 100 µM (inactive)
GI50 [59]: > 100 µM (inactive)
GI50 [41]: > 100 µM (inactive)
GI50 [42]: 0.17 µM (active)
GI50 [43]: > 100 µM (inactive)
GI50 [44]: > 100 µM (inactive)
GI50 [45]: > 100 µM (inactive)
GI50 [46]: > 100 µM (inactive)
GI50 [47]: > 100 µM (inactive)
GI50 [48]: > 100 µM (inactive)
GI50 [49]: > 100 µM (inactive)
GI50 [50]: > 100 µM (inactive)
GI50 [51]: > 100 µM (inactive)
GI50 [52]: > 100 µM (inactive)
GI50 [53]: > 100 µM (inactive)
GI50 [54]: > 100 µM (inactive)
GI50 [55]: > 100 µM (inactive)
GI50 [56]: > 100 µM (inactive)
GI50 [57]: > 100 µM (inactive)
GI50 [58]: > 100 µM (inactive)
